{"source": "paper PMC10366102", "about": "“Dose escalation and expansion cohorts in patients with advanced breast cancer in a Phase I study of the CDK7-inhibitor samuraciclib” (Nature Communications, 2023)", "key": {"[1]": {"set-up": "method as in ref IB", "settings": "human microsomes and hepatocytes in vitro; ref IB; cited from earlier work"}, "[2]": {"set-up": "method as in ref IB", "settings": "ref IB; cited from earlier work"}, "[3]": {"set-up": "method as in ref IB", "settings": "mouse hepatocytes; ref IB; cited from earlier work"}, "[4]": {"system": "advanced solid malignancies", "test": "Module 1A anti-tumor activity (RECIST V1.1, PSA)", "format": "in vivo, human", "text": "treatment RECIST assessment. […]\nnumber of patients in the particular analysis population. Duration of response (DoR) was defined as the time from documentation of tumor response to disease progression. Progression-free survival (PFS) was […]\ncause, whichever occurred first. Efficacy results were summarized descriptively and Kaplan -Meier plots provided where appropriate. […]"}, "pPolII": {"system": "pPolII", "test": "Immunohistochemistry H-score in paired tumor biopsies, pPolII", "format": "in vivo, human", "method": "Per-protocol ctDNA samples were taken in Module 1B-1 at screening, C1D1, C2D1 and on D1 of alternating cycles from Cycle 3; in Module 2A at screening, C1D1 and at either C2D1 (240 mg) or C2D15 (360 mg) for mutational analysis[24],[33], (Supplementary Information). pPolII in lymphocytes and pPolII and pCDK1/2/3 in core needle tissue samples from patients recruited to the paired biopsy cohort were evaluated for on-target pharmacodynamic analyses. […]\npharmacodynamic effects in tumor tissue. […]\nvariability in H-score was observed between sections. […]\nH-scores for pre-dose and on-study biopsies and summary statistics for the observed H-score when stained for pCDK1/2/3 and pPolII are shown in Supplementary Table 11. Significance was calculated using Student’s one-tailed paired t-test, where the alternative hypothesis was that on-study samples had"}, "[5]": {"set-up": "method as in ref IB", "settings": "mouse; ref IB; cited from earlier work"}, "[6]": {"set-up": "method as in ref IB", "settings": "mouse microsomes; ref IB; cited from earlier work"}, "dog": {"system": "dog", "set-up": "method as in ref IB", "settings": "oral 5, 15, and 20 mg/kg, ref IB; cited from earlier work"}, "CYP3A4": {"system": "CYP3A4", "set-up": "method as in ref IB", "settings": "human microsomes; ref IB; cited from earlier work"}, "[7]": {"system": "patients with advanced malignancies", "test": "Safety pooled across study modules", "format": "in vivo", "method": "These were summarized by Medical Dictionary for Regulatory\nadverse events (SAEs) were analyzed and reported separately. Details of any deaths were listed. All\nwere listed individually by patient and summarized descriptively. For urinalysis parameters, any\npositive. Abnormal physical examina tion findings were listed."}, "[8]": {"settings": "Module 1A, 36 evaluable patients"}, "[9]": {"settings": "two castrate-resistant prostate cancer patients"}, "[10]": {"settings": "Module 1 (both parts) and Module 2A"}, "[11]": {"settings": "as of 16 November 2020, 115 patients"}}, "note": "“And” between values parts separate entries of the source, which are not always exact repeats. Equal entries are not always repeated. “Also recorded” adds a separate entry of the source.", "data": [{"smiles": "CC(C)c1cnn2c(NCc3ccccc3)cc(NC[C@H]3CCNC[C@@H]3O)nc12", "note": "[samuraciclib, Samuraciclib]", "values": [{"measurement": "Metabolic stability", "setting": "[1]", "value": "metabolically stable"}, {"measurement": "Phototoxicity", "setting": "[2]", "value": "not phototoxic"}, {"measurement": "Overall turnover", "setting": "[3]", "value": "low"}, {"measurement": "Best change in lesion size on CT scan", "setting": "[4]; 1 colorectal cancer patient, 120 mg", "value": -21, "unit": "%"}, {"measurement": "Decline in cancer antigen CA 15-3", "setting": "[4]; 1 patient with HR-positive BC, interim", "value": 30, "unit": "%"}, {"measurement": "Duration of stable disease", "setting": "[4]; 1 patient, HR-positive BC, 240 mg, ongoing", "value": "[…]"}, {"measurement": "Duration of stable disease", "setting": "[4]; 1 patient, castrate-refractory prostate cancer, 240 mg, cut-off 24-September-2018", "value": "[…]"}, {"measurement": "Duration of stable disease", "setting": "[4]; 1 patient, castrate-refractory prostate cancer, 360 mg, ongoing", "value": "[…]"}, {"measurement": "Duration of stable disease", "setting": "[4]; 1 patient, chondrosarcoma, 360 mg, ongoing", "value": "[…]"}, {"measurement": "Duration of stable disease", "setting": "[4]; 1 patient, oesophageal cancer, 240 mg", "value": "[…]"}, {"measurement": "Duration of stable disease", "setting": "[4]; 1 patient, small-cell lung cancer, 240 mg", "value": "[…]"}, {"measurement": "Decline in PSA", "setting": "[4]; 2/2 patients with castrate-refractory prostate cancer, interim, listed as CT7001", "value": "45% and 30%"}, {"measurement": "Duration of stable disease", "setting": "[4]; 2 patients, colorectal cancer, 120 mg, each", "value": "[…]"}, {"measurement": "Best objective response: Complete response", "setting": "[4]; Module 1A N = 36", "value": "0 n (%)"}, {"measurement": "Best objective response: Partial response", "setting": "[4]; Module 1A N = 36", "value": "1 (2.8) n (%)"}, {"measurement": "Best objective response: Progressive disease", "setting": "[4]; Module 1A N = 36", "value": "17 (47.2) n (%)"}, {"measurement": "Best objective response: Stable disease", "setting": "[4]; Module 1A N = 36", "value": "[…]"}, {"measurement": "Disease control rate", "setting": "[4]; Module 1A N = 36", "value": "19 (52.8) n (%)"}, {"measurement": "Disease control rate", "setting": "[4]; [8]", "value": "53% and 52.8%"}, {"measurement": "Patients maintaining stable disease ≥ 12 weeks", "setting": "[4]; [8]", "value": 38.9, "unit": "%"}, {"measurement": "Duration of partial response", "setting": "[4]; heavily pre-treated HR+ breast cancer patient, 240 mg OD monotherapy", "value": "[…]"}, {"measurement": "Duration of PSA reduction", "setting": "[4]; [9]", "value": "[…]"}, {"measurement": "Reduction in PSA compared to baseline", "setting": "[4]; [9]", "value": "28% and 44%"}, {"measurement": "pPolII H-Score, On study, average", "setting": "pPolII; Average 240mg OD patients, pre-dose 239", "value": 208}, {"measurement": "pPolII H-Score, On study, average", "setting": "pPolII; Average 360mg OD patients, pre-dose 277", "value": 271}, {"measurement": "pPolII H-Score, On study, average", "setting": "pPolII; Average all patients, pre-dose 258", "value": 240}, {"measurement": "pPolII H-Score, On study", "setting": "pPolII; HR+ breast cancer, breast biopsy, 360 mg OD, pre-dose 286", "value": 271}, {"measurement": "pPolII H-Score, On study", "setting": "pPolII; HR+ breast cancer, liver biopsy, 240 mg OD, pre-dose 243", "value": 225}, {"measurement": "pPolII H-Score, On study", "setting": "pPolII; HR+ breast cancer, liver biopsy, 240 mg OD, pre-dose 251", "value": 232}, {"measurement": "pPolII H-Score, On study", "setting": "pPolII; HR+ breast cancer, liver biopsy, 360 mg OD, pre-dose 271", "value": 262}, {"measurement": "pPolII H-Score, On study", "setting": "pPolII; HR+ breast cancer, liver biopsy, 360 mg OD, pre-dose 273", "value": 281}, {"measurement": "pPolII H-Score, On study", "setting": "pPolII; Rhabdomyosarcoma, axilla biopsy, 240 mg OD, pre-dose 223", "value": 167}, {"measurement": "pPolII in tumor tissue", "setting": "pPolII; paired biopsy cohort", "value": "reduction of phosphorylated RNA polymerase II; also recorded: A reduction in pPolII was also seen in tumor tissue"}, {"measurement": "Oral bioavailability", "setting": "[5]", "value": "good oral bioavailability"}, {"measurement": "Intrinsic clearance", "setting": "[6]", "value": "intermediate"}, {"measurement": "Haemodynamic parameters, ECG parameters, body temperature", "setting": "dog", "value": "no effect"}, {"measurement": "IC50", "setting": "CYP3A4", "value": "[…]"}, {"measurement": "Events of Grade 4 thrombocytopenia", "setting": "[7]; 1 at 180mg BID and 1 at 360mg OD", "value": 2, "unit": "events"}, {"measurement": "Events of Grade 1 platelet count decreased", "setting": "[7]; 1 at 240mg OD and 2 at 360mg", "value": 3, "unit": "events"}, {"measurement": "Patients with at least one AE considered related to samuraciclib", "setting": "[7]; 96/98 patients, Modules 1A, 1B-1, 2A", "value": 98.0, "unit": "%"}, {"measurement": "Events of neutropenia/white blood cell count decreased", "setting": "[7]; Grade 1 at 360mg OD and 180mg BID", "value": 2, "unit": "events"}, {"measurement": "Deaths considered related to samuraciclib treatment", "setting": "[7]; [10]", "value": "None"}, {"measurement": "Patients who died following an AE", "setting": "[7]; [10]", "value": 5, "unit": "patients"}, {"measurement": "SAEs considered related to study treatment", "setting": "[7]; [10]", "value": 6}, {"measurement": "Serious adverse events (not including deaths)", "setting": "[7]; [10]", "value": 27, "unit": "patients"}, {"measurement": "Recovery of platelets after stopping samuraciclib", "setting": "[7]; Module 1B-1 and Module 2A", "value": "≤ 28", "unit": "days"}, {"measurement": "Patients with diarrhoea, nausea and vomiting", "setting": "[7]; across dose levels, largely Grade 1, as of 16 November 2020", "value": "more than 75%"}, {"measurement": "Events of anaemia", "setting": "[7]; [11]", "value": 16, "unit": "events"}, {"measurement": "Events of increased ALT", "setting": "[7]; [11]", "value": 14, "unit": "events"}, {"measurement": "Events of increased AST", "setting": "[7]; [11]", "value": 16, "unit": "events"}, {"measurement": "Platelet related AEs", "setting": "[7]; [11]", "value": 13}, {"measurement": "Events of Grade 1 thrombocytopenia", "setting": "[7]; at 360mg OD", "value": 4, "unit": "events"}, {"measurement": "Events of Grade 2 platelet count decreased", "setting": "[7]; at 360mg OD", "value": 1, "unit": "event"}, {"measurement": "Events of Grade 2 thrombocytopenia", "setting": "[7]; at 360mg OD", "value": 2, "unit": "events"}, {"measurement": "Events of Grade 3 thrombocytopenia", "setting": "[7]; at 360mg OD", "value": 1, "unit": "event"}, {"measurement": "Thrombocytopenia reported as Grade ≥4", "setting": "[7]; discussion", "value": 3, "unit": "patients"}]}]}
